Laboratory results: ChEMBL document CHEMBL6182856, “Novel one-/two-photon excited carbazole/quinolinium photosensitizers manifest nanomolar and hypoxia-resistant tumor photodynamic therapy by accelerating apoptosis, ferroptosis, and autophagy” (Eur J Med Chem, 2025)
Active and inactive are the calls of the source. No cut-off for these calls is given here.

How the values were obtained:
Format in all cases: functional
[1] = Photosensitizing ability of the compound assessed as singlet oxygen production measured upon irradiation by electron spin resonance analysis
A549 [2] = test: Induction of apoptosis in human A549 cells assessed as reduction in Bcl-2 expression measured upon light irradiation by western blot analysis relative to control
[3] = Photosensitizing ability of the compound assessed as superoxide radical production upon irradiation by DHE probe based assay relative to KAKQ
[4] = Phototherapeutic index, ratio of IC50 for cytotoxicity against human HT-29 cells measured under normoxia conditions to IC50 for phototoxicity against human HT-29 cells measured under normoxia conditions and after one-photon excitation upon irradiation with light at 520 nm, 200 mW/cm2 for 10 mins
A549 [5] = test: Induction of apoptosis in human A549 cells assessed as increase in Bax expression measured upon light irradiation by western blot analysis relative to control

Compound: CCn1c2ccc(/C=C/c3cc[n+](C)c4ccccc34)cc2c2cc(N(c3ccccc3)c3ccccc3)ccc21.[I-]
- Activity [1]: Active
- fold change (FC) (A549 [2]): ~3
- fold change (FC) [3]: 8
- Ratio IC50 [4]: 51
- fold change (FC) (A549 [5]): 5
